The values below come from patent US9089572B2, “Inhibitors of p97” (California Institute of Technology, priority 2008, dated 2015).

The structures appear in SMILES notation.

One assay deals with Human 26S proteasome. Kind of assay: Hydrolysis of fluorogenic proteasome substrate LLVY-AMC by purified 26S proteasome. Format: biochemical. The note with it: 19 nM 26S proteasome, 30 min preincubation, 60 μM LLVY-AMC. Here is the method: Purified human 26S proteasome (19 nM) was incubated with either DMSO, MG132 or compound 2 for 30 min at room temperature and fluorogenic proteasome substrate LLVY-AMC (60 μM) was added to initiate the reaction. Fluorescence intensity was monitored every 3 min over 30 min.

For another assay, the target named is T1, C522T-mp97 (Mus musculus, UniProt Q01853, C522T).
T1 construct: made in house
T1 sequence (Q01853 whole entry C522T): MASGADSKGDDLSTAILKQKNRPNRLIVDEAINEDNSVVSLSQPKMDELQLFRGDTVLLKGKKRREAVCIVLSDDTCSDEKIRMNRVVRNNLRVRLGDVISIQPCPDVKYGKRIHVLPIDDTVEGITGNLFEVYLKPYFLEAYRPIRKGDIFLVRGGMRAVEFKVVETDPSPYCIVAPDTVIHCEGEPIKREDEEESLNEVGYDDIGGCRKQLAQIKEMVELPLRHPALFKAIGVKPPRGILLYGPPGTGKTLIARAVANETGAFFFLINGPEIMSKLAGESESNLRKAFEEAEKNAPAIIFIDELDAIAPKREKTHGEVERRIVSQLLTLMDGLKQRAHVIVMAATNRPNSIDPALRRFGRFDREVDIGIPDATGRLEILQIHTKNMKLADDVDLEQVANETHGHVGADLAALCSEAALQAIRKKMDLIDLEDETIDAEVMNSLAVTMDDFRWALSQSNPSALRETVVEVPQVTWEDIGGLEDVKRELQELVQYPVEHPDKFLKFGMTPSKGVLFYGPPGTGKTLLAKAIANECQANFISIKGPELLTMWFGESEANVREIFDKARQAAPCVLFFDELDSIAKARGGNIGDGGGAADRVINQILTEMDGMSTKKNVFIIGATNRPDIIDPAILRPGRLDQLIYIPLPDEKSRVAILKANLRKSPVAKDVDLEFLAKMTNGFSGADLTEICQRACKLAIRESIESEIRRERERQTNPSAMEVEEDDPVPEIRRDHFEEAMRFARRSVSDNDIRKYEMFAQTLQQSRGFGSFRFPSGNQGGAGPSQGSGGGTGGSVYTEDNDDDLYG
Kind of assay: In vitro ATP hydrolysis, C522T-mp97 mutant. The class given is biochemical, murine. The settings on record: 20-minute preincubation. Here is the method: (§1) Compounds were tested for their ability to inhibit the ATPase activity of purified wild type murine p97 and T532C-Cdc48, a mutant of yeast Cdc48 in which the residue analogous to cysteine 522, threonine 532, was converted to cysteine.
(§2) To determine whether cysteine 522 is necessary for inhibition of p97 by compound 2, a mutant of p97 was constructed in which cysteine 522 was converted to either alanine (C522A-mp97) or threonine (C522T-mp97). The IC50 values of compound 2 were measured the against various enzymes during a 20-minute preincubation (see Table 2). Mutation of cysteine 522 in p97 to either alanine or threonine decreased sensitivity to compound 2 by greater than 100-fold. On the other hand, yeast Cdc48, which normally is quite resistant to compound 2, became nearly 30-fold more sensitive to the compound upon introduction of a cysteine in place of threonine 532.

Another assay relates to LNCaP. The experiment in a line: MTT cell growth assay, LNCaP. Format: cell-based. The note with it: Homo sapiens, 48 or 72 h, read-out: Cell line inhibition of growth GI50 LNCaP. Here is the method: (§3) To probe further the effect of compound 2 and related compounds 1, 3, 5, 6 and 7, various concentrations of these compounds were added to 13 different cell lines and incubated for 48 or 72 h. An MTT assay was then performed to evaluate cell growth and survival.

The next assay addresses Human 19S ATPase. Kind of assay: In vitro ATP hydrolysis, 19S ATPase of the 26S proteasome. Format: biochemical. The settings on record: 20-minute preincubation. Here is the method:
as §2
To further address the specificity of inhibition by compound 2, its activity against two other AAA ATPases, NSF and the 26S proteasome, was assayed. Although NSF is known to be sensitive to thiol-reactive agents, it was more than 100-fold less sensitive to compound 2 than p97 (Table 2). […] The results with NSF and the 26S proteasome are noteworthy because both the active D1 domain of NSF and the Rpt3 subunit of the 26S proteasome have a cysteine in the position analogous to cysteine 522 of p97 (FIG. 3).

The subject of another assay is PC3. Kind of assay: MTT cell growth assay, PC3. The settings on record: Homo sapiens, PC-3, 48 or 72 h, read-out: Cell line inhibition of growth GI50 PC3. The class given is cell-based. Here is the method:
as §3
A general note: Formazan colour is commonly taken as a measure of viable cells.

The subject of the next assay is Ub-G76V-GFP/HeLa cells. Kind of assay: Degradation of pre-accumulated Ub-G76V-GFP (cycloheximide chase after MG132 washout). The note with it: for % K: relative to 0 μM. The class given is cell-based. Here is the method: To evaluate this possibility, an assay was developed to determine the rate of degradation of pre-accumulated Ub-G76V-GFP molecules. […] Cells were then washed with PBS three times remove the MG132. Cells were then refreshed by adding DMEM containing cycloheximide (50 μg/mL; to block production of more Ub-G76V-GFP) and test compounds (0˜10 μM) were added into cells. Eight 96-well plates were prepared and one of the plates was imaged at 25, 50, 70, 100, 110, 125, 145, or 170 min after washing with PBS three times. After washing out MG132, degradation of pre-accumulated Ub-G76V-GFP appears to follow pseudo-first order reaction. Rate constant (K; 1/min) can be determined from the slope of plotting Ln (Fold Accumulation) versus Time (min) (see FIG. 17 and FIG. 18).
Ub-G76V-GFP/HeLa cells were treated with MG132 (2 μM) for 1 h and washed with PBS three times. DMEM containing cycloheximide (50 μg/mL) and compound 8 (0-10 μM) was added into cells. Eight 96-well plates were prepared and one of the plates was imaged at 25, 50, 70, 100, 110, 125, 145, or 170 min after washing with PBS three times.

Another assay relates to MRC5-SV40. Kind of assay: CellTiter-Glo growth inhibition, MRC5 cells engineered to express SV40. The class given is cell-based. On the technique in general: ATP-based viability assays read luminescence as a measure of living cells.
The next assay concerns HeLa. Kind of assay: MTT cell growth assay, HeLa. Format: cell-based. The note with it: Homo sapiens, 48 or 72 h, read-out: Cell line inhibition of growth GI50 HeLa. Here is the method:
as §3

The next assay relates to HeLa cells. Kind of assay: Accumulation of high molecular weight ubiquitin conjugates (anti-ubiquitin immunoblot), HeLa cells. The class given is cell-based. The settings on record: 1 h at 37° C. From the text: To evaluate whether compound 2 can target p97 activity in cells, we sought to determine whether this compound induces accumulation of high molecular weight ubiquitin conjugates, since it is known that RNAi-mediated knockdown of p97 in mammalian cells has this effect (Wojcik, C. et al. J. Cell Sci. (2004) 117, 281-292). As a positive control for this experiment, the proteasome inhibitor MG132 was used. […] The cells were then harvested, lysed, and centrifuged to generate soluble and insoluble fractions. These fractions were then immunoblotted with anti-ubiquitin antibodies to detect accumulation of high molecular weight conjugates. Blots were also probed with anti-PSTAIRE antibodies as a loading control. […] This effect is particularly pronounced in the insoluble fraction.
To evaluate whether compound 8 can target p97 activity in cells, it was determined whether this compound induces accumulation of high molecular weight ubiquitin conjugates, since it is known that RNAi-mediated knockdown of p97 in mammalian cells has this effect (Wojcik, C. et al. J. Cell Sci. (2004) 117, 281-292). The proteasome inhibitor bortezomib (velcade) was employed as a positive control for this experiment. HeLa (FIG. 25) or RPMI8226 (FIG. 26) cells were treated with Velcade, compound 8, or a combination thereof for 1 h at 37° C. The cells were then harvested and cell lysates were immunoblotted with anti-ubiquitin antibodies to detect accumulation of high molecular weight conjugates. Blots were also probed with anti-PSTAIRE antibodies as a loading control.
Background: A western blot detects proteins with antibodies after separation by electrophoresis.

In a further assay the target is T2, C522A-mp97 (Mus musculus, UniProt Q01853, C522A).
T2 construct: made in house
T2 sequence (Q01853 whole entry C522A): as the sequence (Q01853 whole entry C522T) above, with T522A counted along it
Kind of assay: In vitro ATP hydrolysis, C522A-mp97 mutant. The class given is biochemical, murine. Here is the method: as §1, §2

Sequence of Human 19S ATPase (P17980 whole entry): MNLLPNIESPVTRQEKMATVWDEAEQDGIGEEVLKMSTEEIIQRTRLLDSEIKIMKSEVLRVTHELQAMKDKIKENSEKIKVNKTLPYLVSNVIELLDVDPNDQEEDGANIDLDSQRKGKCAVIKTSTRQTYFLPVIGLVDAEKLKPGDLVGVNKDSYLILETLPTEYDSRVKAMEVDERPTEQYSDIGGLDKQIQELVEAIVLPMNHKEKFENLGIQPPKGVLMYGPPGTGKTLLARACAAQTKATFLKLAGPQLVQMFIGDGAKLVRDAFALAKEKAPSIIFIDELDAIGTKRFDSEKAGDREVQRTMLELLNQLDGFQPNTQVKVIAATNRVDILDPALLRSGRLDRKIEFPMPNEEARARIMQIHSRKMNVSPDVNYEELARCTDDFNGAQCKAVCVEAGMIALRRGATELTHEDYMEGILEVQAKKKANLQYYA
Sequence of Human 19S ATPase (P62333 whole entry, further chain): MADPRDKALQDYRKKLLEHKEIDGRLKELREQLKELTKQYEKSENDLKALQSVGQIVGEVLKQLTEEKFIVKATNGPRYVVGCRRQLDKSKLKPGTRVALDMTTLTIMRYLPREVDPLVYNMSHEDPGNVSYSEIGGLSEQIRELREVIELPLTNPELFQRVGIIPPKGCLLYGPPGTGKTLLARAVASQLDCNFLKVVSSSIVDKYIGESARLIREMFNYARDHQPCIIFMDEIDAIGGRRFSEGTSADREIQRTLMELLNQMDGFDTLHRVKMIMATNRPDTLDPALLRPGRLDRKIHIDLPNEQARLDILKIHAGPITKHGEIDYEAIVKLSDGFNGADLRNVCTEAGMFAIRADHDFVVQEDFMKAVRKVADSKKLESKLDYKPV
Sequence of Human 19S ATPase (P62195 2-406, further chain): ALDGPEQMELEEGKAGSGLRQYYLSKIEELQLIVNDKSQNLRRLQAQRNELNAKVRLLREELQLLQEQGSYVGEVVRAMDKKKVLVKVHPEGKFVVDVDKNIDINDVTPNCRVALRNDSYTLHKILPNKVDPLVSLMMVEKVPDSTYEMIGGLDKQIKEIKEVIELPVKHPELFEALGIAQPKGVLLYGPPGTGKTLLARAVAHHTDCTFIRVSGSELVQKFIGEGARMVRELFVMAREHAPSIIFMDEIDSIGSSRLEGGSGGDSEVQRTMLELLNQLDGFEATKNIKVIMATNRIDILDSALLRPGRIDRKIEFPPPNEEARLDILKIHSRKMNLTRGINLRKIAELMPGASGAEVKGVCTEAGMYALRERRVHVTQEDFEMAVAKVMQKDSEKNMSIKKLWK
Sequence of Human 19S ATPase (P35998 2-433, further chain): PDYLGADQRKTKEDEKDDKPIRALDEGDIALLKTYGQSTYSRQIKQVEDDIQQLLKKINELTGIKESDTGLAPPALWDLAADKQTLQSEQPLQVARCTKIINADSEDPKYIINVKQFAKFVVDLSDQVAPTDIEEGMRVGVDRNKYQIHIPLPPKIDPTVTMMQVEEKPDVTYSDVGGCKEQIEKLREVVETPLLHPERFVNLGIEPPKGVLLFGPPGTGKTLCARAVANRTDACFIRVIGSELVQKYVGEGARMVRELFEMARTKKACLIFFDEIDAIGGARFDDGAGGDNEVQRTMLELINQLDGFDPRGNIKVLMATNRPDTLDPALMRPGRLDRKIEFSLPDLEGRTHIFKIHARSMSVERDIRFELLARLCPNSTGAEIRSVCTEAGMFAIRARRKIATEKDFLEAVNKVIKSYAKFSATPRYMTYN
Sequence of Human 19S ATPase (P62191 2-440, further chain): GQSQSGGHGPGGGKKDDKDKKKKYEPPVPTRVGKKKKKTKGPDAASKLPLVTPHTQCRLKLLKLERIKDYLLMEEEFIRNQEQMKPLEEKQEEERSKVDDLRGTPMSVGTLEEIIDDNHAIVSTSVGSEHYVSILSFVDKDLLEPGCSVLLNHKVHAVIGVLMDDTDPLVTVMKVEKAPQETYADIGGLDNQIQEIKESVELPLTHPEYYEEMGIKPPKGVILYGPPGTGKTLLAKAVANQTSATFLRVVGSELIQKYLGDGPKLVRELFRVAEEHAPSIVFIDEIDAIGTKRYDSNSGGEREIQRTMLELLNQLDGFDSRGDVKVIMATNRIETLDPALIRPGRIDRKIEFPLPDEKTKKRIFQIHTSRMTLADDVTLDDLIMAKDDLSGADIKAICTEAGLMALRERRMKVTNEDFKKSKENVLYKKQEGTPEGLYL
Sequence of Human 19S ATPase (P43686 whole entry, further chain): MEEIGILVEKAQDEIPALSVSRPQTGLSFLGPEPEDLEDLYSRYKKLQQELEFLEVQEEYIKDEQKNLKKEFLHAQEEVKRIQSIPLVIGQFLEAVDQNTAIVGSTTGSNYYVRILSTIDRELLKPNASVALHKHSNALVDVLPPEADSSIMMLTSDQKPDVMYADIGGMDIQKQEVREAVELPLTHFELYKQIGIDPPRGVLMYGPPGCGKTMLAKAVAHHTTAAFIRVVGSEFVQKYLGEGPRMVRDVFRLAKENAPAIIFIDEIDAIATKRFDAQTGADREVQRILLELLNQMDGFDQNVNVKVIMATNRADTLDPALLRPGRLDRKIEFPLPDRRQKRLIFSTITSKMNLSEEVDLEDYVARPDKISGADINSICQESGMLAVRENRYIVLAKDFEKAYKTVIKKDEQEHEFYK

As usually defined, the IC50 is the concentration that gives 50% inhibition. For orientation: GI50 means the concentration that inhibits growth by half. In the case of `C=CC(=O)Nc1ncnc2c1c(-c1ccccc1)nn2C(C)(C)C` [Compound 2], in the assay with Human 26S proteasome, the “inhibition of hydrolysis of proteasome substrate LLVY-AMC” value is given as “does not inhibit hydrolysis”. In addition, the half-maximal inhibitory concentration (IC50) was 82 ± 45 µM against C522T-mp97; 75 µM at Human 19S ATPase; 1.25 ± 0.47 µM in the assay on Ub-G76V-GFP/HeLa cells (Homo sapiens, HeLa, 1 h, read-out: IC50 on the decay of Ub-G76V-GFP); 110 ± 33 µM against C522A-mp97 (20-minute preincubation). Also, the GI50 in the assay with LNCaP amounted to 2.7 ± 1.2 µM; in the assay with PC3, 2.2 ± 1.1 µM; in the assay on MRC5-SV40 (Homo sapiens, MRC5, 48 h at 37° C., CellTiter-Glo, read-out: Cell line inhibition of growth GI50 MRC5-SV40) it was 7.3 ± 5.5 µM; with HeLa, 0.4 ± 0.3 µM. In addition, the “K, rate constant of Ub-G76V-GFP degradation” value with Ub-G76V-GFP/HeLa cells (0.01 μM) stood at 0.0318 min⁻¹; in the assay on Ub-G76V-GFP/HeLa cells (0.04 μM), 0.0306 min⁻¹; with Ub-G76V-GFP/HeLa cells (0.16 μM), 0.0292 min⁻¹; in the assay on Ub-G76V-GFP/HeLa cells (0.63 μM) it was 0.0237 min⁻¹; with Ub-G76V-GFP/HeLa cells (2.5 μM) it was 0.0189 min⁻¹; in the assay on Ub-G76V-GFP/HeLa cells (10 μM), 0.0015 min⁻¹. For the same molecule, the “% K” value is 83% in the assay on Ub-G76V-GFP/HeLa cells (0.01 μM); 80% with Ub-G76V-GFP/HeLa cells (0.04 μM); 76% in the assay on Ub-G76V-GFP/HeLa cells (0.16 μM); 62% with Ub-G76V-GFP/HeLa cells (0.63 μM); 49% in the assay on Ub-G76V-GFP/HeLa cells (2.5 μM); 4% in the assay on Ub-G76V-GFP/HeLa cells (10 μM). Moreover, in the assay with MRC5-SV40 (MRC5-SV40 vs MRC5-WT GI50), the “greater sensitivity of SV40-transformed cells than WT cell line” value is 2 fold. Further, in the assay with HeLa cells, the “accumulation of high molecular weight ubiquitin conjugates, HeLa cells” value was “caused accumulation of high molecular weight ubiquitin conjugates”. The “decrease in sensitivity on mutation of cysteine 522 in p97 to alanine or threonine” value at C522A-mp97 (C522A or C522T vs wild type p97) is “greater than 100 fold”.
